# Laboratory results as given in US12162872B2, “Cycloalkylurea derivative” (Sumitomo Pharma Co., Ltd., priority 2019, dated 2024).
# Biological target: T1, Human orexin receptor type 2 (Homo sapiens, UniProt O43614)
# T1 construct: expressed in transfected cells; host or cells: CHO cells (transient expression)
# T1 sequence (O43614 1-444): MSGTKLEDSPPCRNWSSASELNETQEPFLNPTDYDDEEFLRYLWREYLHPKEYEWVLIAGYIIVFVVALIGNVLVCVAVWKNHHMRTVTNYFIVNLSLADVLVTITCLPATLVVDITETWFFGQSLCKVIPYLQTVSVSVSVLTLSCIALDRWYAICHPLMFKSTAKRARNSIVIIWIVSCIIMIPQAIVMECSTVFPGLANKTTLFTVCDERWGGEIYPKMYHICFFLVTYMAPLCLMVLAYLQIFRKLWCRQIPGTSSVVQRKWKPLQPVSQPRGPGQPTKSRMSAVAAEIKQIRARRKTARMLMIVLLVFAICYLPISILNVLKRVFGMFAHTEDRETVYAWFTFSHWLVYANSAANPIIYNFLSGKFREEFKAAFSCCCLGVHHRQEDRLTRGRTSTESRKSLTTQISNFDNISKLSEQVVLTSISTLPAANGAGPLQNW
# Assay: Test 1: Evaluation of agonist activity for orexin receptor type 2 (aequorin luminescence, intracellular calcium mobilization in CHO cells)
# Format: cell-based
# Details: relative percentage of luminescence for the luminescence (100%) of Orexin A (100 pM); CHO cells transiently expressing human orexin receptor type 2 and apoaequorin; Orexin A Lot. 641114
# Description: Test 1: Evaluation of Agonist Activity for Orexin Receptor Type 2
# Human orexin receptor type 2 and apoaequorin were transiently expressed in CHO cells, and the agonist activity was evaluated based on intracellular calcium mobilization with ligand stimulation. The CHO cells transiently-expressed human orexin receptor type 2 and apoaequorin were seeded on a 384-well plate by 2,000 cells/well, and then incubated for 16-22 hours. After the plate was returned to room temperature, Coelenterazine hcp (final concentration: 1 μM) was added to the plate, and the plate was allowed to stand at room temperature for 2 hours. And then, Orexin A (PEPTIDE INSTITUTE, INC., Lot. 641114) or each test compound was added to the plate, and the luminescence of the cells was measured with FDSS7000 (Hamamatsu Photonics K.K.), wherein Orexin A and each test compound were dissolved in DMSO (final concentration: 0.1%), and diluted with a buffer (Hanks, 20 mM HEPES, 0.1% BSA). The agonist activity of each test compound for orexin receptor type 2 was calculated as relative percentage of luminescence for the luminescence (100%) of Orexin A (100 pM).
row,agonist activity (%),SMILES
1,146,"Cc1cnc(C2CCN(C(=O)N[C@@H]3[C@@H](N4CCN(C(C)C)CC4)CCCC3(F)F)CC2)nc1 (racemic) [Example 54, rac-N-{(1R,6S)-2,2-difluoro-6-[4-(propan-2-yl)piperazin-1-yl]cyclohexyl}-4-(5-methylpyrimidin-2-yl)piperidine-1-carboxamide]"
2,95,"CC(C)N1CCN([C@H]2CCCC(F)(F)[C@@H]2NC(=O)N2CCC(c3ccc(C(F)(F)F)cn3)CC2)CC1 (racemic) [Example 55, rac-N-{(1R,6S)-2,2-difluoro-6-[4-(propan-2-yl)piperazin-1-yl]cyclohexyl}-4-[5-(trifluoromethyl)pyridin-2-yl]piperidine-1-carboxamide]"
3,150,"Cc1ccc(C2(C)CCN(C(=O)N[C@@H]3[C@@H](N4CCN(C(C)C)CC4)CCCC3(F)F)CC2)cc1 (racemic) [Example 58, rac-N-{(1R,6S)-2,2-difluoro-6-[4-(propan-2-yl)piperazin-1-yl]cyclohexyl}-4-methyl-4-(4-methylphenyl)piperidine-1-carboxamide]"
4,164,"CC(C)N1CCN([C@H]2CCCC(F)(F)[C@@H]2NC(=O)N2CCC(C)(c3ccc(C(F)F)cc3)CC2)CC1 (racemic) [Example 59, rac-4-[4-(difluoromethyl)phenyl]-N-{(1R,6S)-2,2-difluoro-6-[4-(propan-2-yl)piperazin-1-yl]cyclohexyl}-4-methylpiperidine-1-carboxamide]"
5,158,"Cc1ccc(C2CC=C(C(=O)N[C@@H]3[C@@H](N4CCN(C(C)C)CC4)CCCC3(F)F)CC2)cc1 (mixture of isomers) [Example 77, rac-N-{(1R,6S)-2,2-Difluoro-6-[4-(propan-2-yl)piperazin-1-yl]cyclohexyl}-4′-methyl-1,2,3,6-tetrahydro[1,1′-biphenyl]-4-carboxamide]"
6,36,"Cc1ccc(C2CC=C(C(=O)O[C@@H]3[C@@H](N4CCN(C(C)C)CC4)CCCC3(F)F)CC2)cc1 (mixture of isomers) [Example 78, rac-(1R,6S)-2,2-Difluoro-6-[4-(propan-2-yl)piperazin-1-yl]cyclohexyl 4′-methyl-1,2,3,6-tetrahydro[1,1′-biphenyl]-4-carboxylate]"
7,191,"CC(C)N1CCN([C@H]2CCCC(F)(F)[C@@H]2NC(=S)N2CCC(C)(c3noc(C4CC4)n3)CC2)CC1 (racemic) [Example 79, rac-4-(5-cyclopropyl-1,2,4-oxadiazol-3-yl)-N-{(1R,6S)-2,2-difluoro-6-[4-(propan-2-yl)piperazin-1-yl]cyclohexyl}-4-methylpiperidine-1-carbothioamide]"
8,57,"Cc1ccc(C2CCN(C(=O)NC3C(CN4CCN(C(C)C)CC4)[C@@H]4CC[C@H]3C4)CC2)cc1 (mixture of isomers) [Example 81, rac-4-(4-Methylphenyl)-N-[(1S,4R)-3-{[4-(propan-2-yl)piperazin-1-yl]methyl}bicyclo[2.2.1]heptan-2-yl]piperidine-1-carboxamide]"
9,140,"Cc1ccc(C2(C)CCN(C(=O)N[C@@H]3[C@@H](N4CCN(C(C)C)CC4)CCCC3(F)F)CC2)c(F)c1 [Example 56, N-{(1R,6S)-2,2-difluoro-6-[4-(propan-2-yl)piperazin-1-yl]cyclohexyl}-4-(2-fluoro-4-methylphenyl)-4-methylpiperidine-1-carboxamide]"
10,155,"CC(C)N1CCN([C@H]2CCCC(F)(F)[C@@H]2NC(=O)N2CCC(C)(c3nsc(OC4CC4)n3)CC2)CC1 [Example 57, 4-[5-(cyclopropyloxy)-1,2,4-thiadiazol-3-yl]-N-{(1R,6S)-2,2-difluoro-6-[4-(propan-2-yl)piperazin-1-yl]cyclohexyl}-4-methylpiperidine-1-carboxamide]"

# Further lines, the molecule ahead of its results:
row,SMILES,agonist activity (%)
1,"CC(C)N1CCN([C@H]2CCCC(F)(F)[C@@H]2NC(=O)N2CCC(C)(c3ncc(C4CC4)s3)CC2)CC1 (racemic) [Example 48, rac-4-(5-cyclopropyl-1,3-thiazol-2-yl)-N-{(1R,6S)-2,2-difluoro-6-[4-(propan-2-yl)piperazin-1-yl]cyclohexyl}-4-methylpiperidine-1-carboxamide]",156
2,"Cc1ccc(C2CCN(C(=O)N[C@@H]3[C@@H](N4CCN(C(C)C)CC4)CCCC3(F)F)CC2)nc1 (racemic) [Example 50, rac-N-{(1R,6S)-2,2-difluoro-6-[4-(propan-2-yl)piperazin-1-yl]cyclohexyl}-4-(5-methylpyridin-2-yl)piperidine-1-carboxamide]",154
3,"Cc1cnc(C2CCN(C(=O)N[C@@H]3[C@@H](N4CCN(C(C)C)CC4)CCCC3(F)F)CC2)c(F)c1 (racemic) [Example 51, rac-N-{(1R,6S)-2,2-difluoro-6-[4-(propan-2-yl)piperazin-1-yl]cyclohexyl}-4-(3-fluoro-5-methylpyridin-2-yl)piperidine-1-carboxamide]",149
4,"CC(C)N1CCN([C@H]2CCCC(F)(F)[C@@H]2NC(=O)N2CCC(c3ccc(F)cn3)CC2)CC1 (racemic) [Example 52, rac-N-{(1R,6S)-2,2-difluoro-6-[4-(propan-2-yl)piperazin-1-yl]cyclohexyl}-4-(5-fluoropyridin-2-yl)piperidine-1-carboxamide]",113
5,"COc1ccc(C2CCN(C(=O)N[C@@H]3[C@@H](N4CCN(C(C)C)CC4)CCCC3(F)F)CC2)nc1 (racemic) [Example 53, rac-N-{(1R,6S)-2,2-difluoro-6-[4-(propan-2-yl)piperazin-1-yl]cyclohexyl}-4-(5-methoxypyridin-2-yl)piperidine-1-carboxamide]",143
6,"CC(C)N1CCN([C@H]2CCCC(F)(F)[C@@H]2OC(=O)N2CCC(C)(c3noc(C4CC4)n3)CC2)CC1 [Example 14, (1R,6S)-2,2-difluoro-6-[4-(propan-2-yl)piperazin-1-yl]cyclohexyl 4-(5-cyclopropyl-1,2,4-oxadiazol-3-yl)-4-methylpiperidine-1-carboxylate]",178
7,"CC(C)N1CCN([C@@H]2CCCC(F)(F)[C@H]2NC(=O)N2CCC(C)(c3cc(C4CC4)on3)CC2)CC1 [Example 22, 4-(5-cyclopropyl-1,2-oxazol-3-yl)-N-{(1S,6R)-2,2-difluoro-6-[4-(propan-2-yl)piperazin-1-yl]cyclohexyl}-4-methylpiperidine-1-carboxamide]",163
8,"CC(C)N1CCN([C@@H]2CCCC(F)(F)[C@H]2NC(=O)N2CCC(C)(c3noc(C4CC4)n3)CC2)CC1 [Example 23, 4-(5-cyclopropyl-1,2,4-oxadiazol-3-yl)-N-{(1S,6R)-2,2-difluoro-6-[4-(propan-2-yl)piperazin-1-yl]cyclohexyl}-4-methylpiperidine-1-carboxamide]",104
9,"CC(C)N1CCN([C@H]2CCCC(F)(F)[C@@H]2NC(=O)N2CCC(C)(c3noc(C4CC4)n3)CC2)CC1 [Example 24, 4-(5-cyclopropyl-1,2,4-oxadiazol-3-yl)-N-{(1R,6S)-2,2-difluoro-6-[4-(propan-2-yl)piperazin-1-yl]cyclohexyl}-4-methylpiperidine-1-carboxamide]",210
10,"CC(C)N1CCN([C@H]2CCCC(F)(F)[C@@H]2NC(=O)N2CCC(C)(c3cc(C4CC4)on3)CC2)CC1 [Example 25, 4-(5-cyclopropyl-1,2-oxazol-3-yl)-N-{(1R,6S)-2,2-difluoro-6-[4-(propan-2-yl)piperazin-1-yl]cyclohexyl}-4-methylpiperidine-1-carboxamide]",165
11,"CC(C)N1CCN([C@H]2CCCC(F)(F)[C@@H]2NC(=O)N2CCC(C)(c3nsc(C4CC4)n3)CC2)CC1 [Example 43, 4-(5-cyclopropyl-1,2,4-thiadiazol-3-yl)-N-{(1R,6S)-2,2-difluoro-6-[4-(propan-2-yl)piperazin-1-yl]cyclohexyl}-4-methylpiperidine-1-carboxamide]",146
12,"CC(C)N1CCN([C@H]2CCCC(F)(F)[C@@H]2NC(=O)N2CCC(C)(c3nnc(C4CC4)s3)CC2)CC1 [Example 44, 4-(5-cyclopropyl-1,3,4-thiadiazol-2-yl)-N-{(1R,6S)-2,2-difluoro-6-[4-(propan-2-yl)piperazin-1-yl]cyclohexyl}-4-methylpiperidine-1-carboxamide]",148
13,"Cc1ccc(C2(C)CCN(C(=O)N[C@@H]3[C@@H](N4CCN(C(C)C)CC4)CCCC3(F)F)CC2)cc1 [Example 49, N-{(1R,6S)-2,2-difluoro-6-[4-(propan-2-yl)piperazin-1-yl]cyclohexyl}-4-methyl-4-(4-methylphenyl)piperidine-1-carboxamide]",151
